The NIST ThermoML archive (doi:10.1021/acs.jced.8b01078)

Details: Liquid, Closed cell (Static) method

O [water]
Details	vapor or sublimation pressure [kPa]
313.16 K	7.46
323.16 K	12.54
333.16 K	20.24
343.16 K	31.54
353.16 K	48.25
363.16 K	70.49
373.16 K	101.98
